Patent US20170320837A1, “METHOD FOR TREATING INFLAMMATORY DISORDERS” (Synta Pharmaceuticals Corp., priority 2006, published 2017)
Entries after “also recorded” stand apart in the source; their conditions may differ.

Key:
glucocorticoid receptors = target: T1, glucocorticoid receptors (Homo sapiens, UniProt P04150); assay: Competitive binding assay with tritium labeled dexamethason in Hela S3 cells (legend of FIG. 3)
T1 construct: endogenous in cells; host or cells: HeLa S3
T1 sequence (P04150 1-777): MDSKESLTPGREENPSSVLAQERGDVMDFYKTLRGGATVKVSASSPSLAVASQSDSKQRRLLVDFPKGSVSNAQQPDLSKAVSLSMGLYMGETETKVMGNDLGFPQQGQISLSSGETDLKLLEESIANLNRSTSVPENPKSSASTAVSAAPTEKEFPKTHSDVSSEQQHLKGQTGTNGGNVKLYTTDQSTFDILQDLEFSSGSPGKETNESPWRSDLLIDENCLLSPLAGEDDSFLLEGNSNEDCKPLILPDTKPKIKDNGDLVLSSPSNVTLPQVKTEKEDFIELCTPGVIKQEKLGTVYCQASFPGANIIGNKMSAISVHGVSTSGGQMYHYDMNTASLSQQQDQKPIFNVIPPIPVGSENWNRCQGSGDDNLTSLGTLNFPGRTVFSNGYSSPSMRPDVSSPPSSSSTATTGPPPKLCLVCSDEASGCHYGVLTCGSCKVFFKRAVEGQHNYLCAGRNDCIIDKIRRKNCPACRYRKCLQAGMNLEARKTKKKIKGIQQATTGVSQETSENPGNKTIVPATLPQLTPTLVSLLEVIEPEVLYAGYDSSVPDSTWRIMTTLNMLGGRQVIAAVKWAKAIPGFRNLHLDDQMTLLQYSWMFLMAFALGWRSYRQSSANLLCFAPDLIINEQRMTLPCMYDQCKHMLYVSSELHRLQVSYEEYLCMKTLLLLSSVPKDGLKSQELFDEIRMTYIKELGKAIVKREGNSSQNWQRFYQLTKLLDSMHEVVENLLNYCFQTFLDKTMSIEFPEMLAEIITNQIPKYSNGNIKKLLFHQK

glucocorticoid receptor [1] = assay: Glucocorticoid receptor levels in rat PBMCs, immunoblot; assay type: cell-based; conditions: rat PBMCs, 0, 1, 5, 25, or 100 nM, 16 hours
Procedure: (§1) The whole blood samples from healthy human volunteer and male SD rat were collected and the PBMCs were isolated immediately as follows. 5 ml of whole blood was diluted with an equal volume of sterile 1× PBS. The diluted blood was overlayed carefully into a sterile centrifuge tube without disturbing the bottom layer that containing 5 ml of Ficoll-paque plus density gradient solution. The layered blood was centrifuged at 1500×g for 30 minutes at room temperature. The middle thin layer containing PBMCs was carefully removed, transferred to another sterile centrifuge tube, and washed twice with PBS to remove […]. Isolated rat and human PBMCs were cultured in 10% fetal bovine serum/DMEM.
(§2) The rat and human PBMCs were treated with DMSO (control), Compound 226, Compound 287, or 17-DMAG at concentrations of 0, 1, 5, 25, or 100 nM (in DMSO) for 16 hours. The cells were then collected and rinsed in ice-cold PBS and stored in liquid nitrogen until further analysis.
(§3) PBMC were prepared in Western lysis buffer (10 mmol/L HEPES, 42 mmol/L KCl, 5 mmol/L MgCl2, 0.1 mmol/L EDTA, 0.1 mmol/L EGTA, 1 mmol/L DTT, 1% Triton X-100, freshly supplemented with 1× protease inhibitor cocktail from Pierce, Rockford, Ill.). Lysate protein concentrations were quantified by bicinchoninic acid assay (Pierce) and normalized. Equal amounts of protein were loaded onto 10% NuPAGE Bis-Tris Gels (Invitrogen) and subsequently transferred onto polyvinylidene difluoride membranes. The membranes were blocked in 5% milk in TBST. Primary antibody of glucocorticod receptor from Santa Cruz Biotechnology, Inc. was added and incubated at room temperature for 1 hour with shaking. The blots were washed extensively in TBST before secondary antibodies were added for overnight incubation at 4° C. with gentle shaking. The blots were again washed extensively and developed with SuperSignal West Femto substrate (Pierce). The immunoblot analysis was performed to measure the level of total GRs by Quantity One software from Bio-Rad.

glucocorticoid receptor [2] = assay: Glucocorticoid receptor levels in human PBMCs, immunoblot (Example 114); assay type: cell-based; conditions: human PBMCs, 0, 1, 5, 25, or 100 nM, 16 hours
Procedure: as §1, §2, §3

glucocorticoid receptor [3] = assay: Glucocorticoid receptor levels in human PBMCs, renal cells and cancer cell lines, immunoblot (Example 115); assay type: cell-based
Procedure: Normal human renal proximal tubule epithelial cells and tumor cell lines of MV-4-11, Kasumi-1, and Hela were obtained from Cambrex Bioproducts and American Type Culture Collection, respectively. Cells were cultured with 10% fetal bovine serum/DMEM.
The whole blood samples from healthy human volunteer were collected and the PBMCs were isolated immediately as described in Example 116. Isolated human PBMCs were cultured in 10% fetal bovine serum/DMEM.
as §2, with “Human PBMCs, kasumi-1, My-4-11, Hela,” for “The rat”, “renal proximal tubule epithelial cells” for “PBMCs”, “287,” for “287, or”, “0,” for “0, 1,”
as §3, with “PBMC, renal and tumor cell pellets” for “PBMC”, “0.1. mmol/LEGTA,” for “0.1 mmol/L EGTA,”, “glucocorticoid” for “glucocorticod”, “(Pierce).” for “(Pierce). The immunoblot analysis was performed to measure the level of total GRs by Quantity One software from Bio-Rad.”

glucocorticoid receptor [4] = assay: Glucocorticoid receptor levels in PBMCs of rats after four days of intravenous dosing, immunoblot; assay type: in vivo, Sprague-Dawley (SD) rats; conditions: daily intravenously for four days, 17-DMAG 6 mg/kg, Paclitaxel 5 mg/kg, Compound 264 80 mg/kg, Compound 226 50 mg/kg
Procedure: The test compounds were administered daily intravenously via tail vein for four days. […] All rats were sacrificed at the study day 5. About 1-2 mL of blood samples were collected per animal. The blood samples were then pulled together as a group for PBMC isolation.

GR (human recombinant) = target: T2, GR (human recombinant) (Homo sapiens, UniProt P04150); assay: GR competitive assay, fluorescence polarization with Fluormone GS1; assay type: binding; conditions: tested up to 10 uM
T2 construct: purchased Invitrogen P2816
T2 sequence (P04150 1-777): T1 sequence (P04150 1-777)
Procedure: To determine whether the compounds of the invention bind directly to the glucocorticoid receptor, GR competitive assay was performed using a kit from Invitrogen (Cat #P2816). GR (human recombinant) was added to a fluorescent glucocorticoid (Fluormone™ GS1) ligand with a test compound at various concentrations (a serial dilution of the test compound was done on a 96-well plate) and incubated for 2-4 hours in the dark. […] The shift in polarization value in the presence of a test compound was used to determine relative affinity of test compounds for glucocorticoid receptors. The buffer plus Fluormone™ GS1 and glucocorticoid receptor in the absent of s test compound was used as negative control presenting 0% competition. […] The IC50 was calculated based on the inhibition rate of binding activity of the testing compound.

Her2 = assay: Degradation of Her2 in BT-474 cells, immunoblot (Method 1); assay type: cell-based, Human; conditions: overnight
Procedure: Human high-Her2 breast carcinoma BT474 (HTB-20), SK-BR-3 (HTB-30) and MCF-7 breast carcinoma (HTB-22) from American Type Culture Collection, VA, USA were grown in Dulbecco's modified Eagle's medium with 4 mM L-glutamine and antibiotics (100 IU/ml penicillin and 100 ug/ml streptomycine; GibcoBRL). To obtain exponential cell growth, cells were trypsinized, counted and seeded at a cell density of 0.5×10^6 cells/ml regularly, every 3 days. All experiments were performed on day 1 after cell passage. • B. Degradation of Her2 in Cells After Treatment with a Compound of the Invention • 1. Method 1
BT-474 cells were treated with 0.5 μM, 2 μM, or 5 μM of 17AAG (a positive control) or 0.5 μM, 2 μM, or 5 μM of Compound 108 or Compound 49 overnight in DMEM medium. After treatment, each cytoplasmic sample was prepared from 1×10^6 cells by incubation of cell lysis buffer (#9803, cell Signaling Technology) on ice for 10 minutes. The resulting supernatant used as the cytosol fractions were dissolved with sample buffer for SDS-PAGE and run on a SDS-PAGE gel, blotted onto a nitrocellulose membrane by using semi-dry transfer. Non-specific binding to nitrocellulose was blocked with 5% skim milk in TBS with 0.5% Tween at room temperature for 1 hour, then probed with anti-Her2/ErB2 mAb (rabbit IgG, #2242, Cell Signaling) and anti-Tubulin (T9026, Sigma) as housekeeping control protein. HRP-conjugated goat anti-rabbit IgG (H+L) and HRP-conjugated horse anti-mouse IgG (H+L) were used as secondary Ab (#7074, #7076, Cell Signaling) and LumiGLO reagent, 20× Peroxide (#7003, Cell Signaling) was used for visualization.

Hsp90 protein = assay: Malachite Green Assay of ATPase activity of Hsp90 protein; assay type: biochemical
Procedure: Hsp90 protein was obtained from Stressgen (Cat #SPP-770). Assay buffer: 100 mM Tris-HCl, Ph 7.4, 20 mM KCl, 6 mM MgCl2. […] Malachite green reagent was added to the reaction. […] The plate was read by an ELISA reader with an absorbance at 620 nm.

[5] = Kasumi-1 AML cancer cells, 0, 5, 25, or 100 nM, 16 hrs
[6] = MV-4-11 AML cancer cells, 0, 5, 25, or 100 nM, 16 hrs
[7] = cancer cells as well as normal PBMCs and renal cells
[8] = human PBMCs, 0, 5, 25, or 100 nM, 16 hrs
[9] = human renal cells, 0, 5, 25, or 100 nM, 16 hrs

Q: With C[C@@H]1C[C@H]2O[C@@H]2/C=C\C=C\C(=O)Cc2c(Cl)c(O)cc(O)c2C(=O)O1 [radicicol] as the molecule, how does the “displacement of tritium labeled dexamethason” value (glucocorticoid receptors) read?
A: did not displace the tritium labeled dexamethason

Q: Which results are given for CC(C)c1cc(-c2nnc(O)n2-c2ccc(N(C)CCN(C)C)cc2)c(O)cc1O [Compound 287]?
A: expression of glucocorticoid receptors (glucocorticoid receptor [1]): dose dependent decrease; also recorded: decreased the expression of glucocorticoid receptor in a dose dependent manner; expression of glucocorticoid receptors (glucocorticoid receptor [2]): dose dependent decrease; also recorded: decreased the expression of glucocorticoid receptor in a dose dependent manner; suppression of glucocorticoid receptors, cancer cells compared with normal cells (glucocorticoid receptor [3]): more pronounced in cancer cell than in normal cells; expression of glucocorticoid receptors (glucocorticoid receptor [3]; [5]): dose dependent decrease; expression of glucocorticoid receptors (glucocorticoid receptor [3]; [6]): dose dependent decrease; expression of glucocorticoid receptors (glucocorticoid receptor [3]; [7]): suppress the expression of glucocorticoid receptors; expression of glucocorticoid receptors (glucocorticoid receptor [3]; [8]): dose dependent decrease; expression of glucocorticoid receptors (glucocorticoid receptor [3]; [9]): dose dependent decrease

Q: For CCCN(C)c1cc(-n2c(S)nnc2-c2cc(C(C)C)c(O)cc2O)ccc1OC [Compound 264], which “expression of glucocorticoid receptor (GR) in isolated PBMC compared with vehicle” value (glucocorticoid receptor [4]) is on record?
A: decreased

Q: What about the IC50 (GR (human recombinant)) of the same molecule?
A: > 10 µM

Q: Which results are given for CC(=O)O[C@H]1C(=O)[C@@]2(C)[C@H]([C@H](OC(=O)c3ccccc3)[C@]3(O)C[C@H](OC(=O)[C@H](O)[C@@H](NC(=O)c4ccccc4)c4ccccc4)C(C)=C1C3(C)C)[C@]1(OC(C)=O)CO[C@@H]1C[C@@H]2O [Paclitaxel, reference compound]?
A: displacement of tritium labeled dexamethason (glucocorticoid receptors): did not displace the tritium labeled dexamethason; expression of glucocorticoid receptor (GR) in isolated PBMC compared with vehicle (glucocorticoid receptor [4]): decreased

Q: How did the “expression of glucocorticoid receptors” value (glucocorticoid receptor [1]) turn out when CO[C@H]1/C=C\C=C(/C)C(=O)NC2=CC(=O)C(NCCN(C)C)=C(C[C@@H](C)C[C@H](OC)[C@H](O)[C@@H](C)/C=C(\C)[C@@H]1OC(N)=O)C2=O [Compound 17-DMAG, 17-DMAG, reference compound] was run?
A: dose dependent decrease; also recorded: decreased the expression of glucocorticoid receptor in a dose dependent manner

Q: What about the “expression of glucocorticoid receptor (GR) in isolated PBMC compared with vehicle” value (glucocorticoid receptor [4]) of the same molecule?
A: decreased

Q: And the “expression of glucocorticoid receptors” value (glucocorticoid receptor [2])?
A: dose dependent decrease; also recorded: decreased the expression of glucocorticoid receptor in a dose dependent manner

Q: What about the “suppression of glucocorticoid receptors, cancer cells compared with normal cells” value (glucocorticoid receptor [3]) of the same molecule?
A: more pronounced in cancer cell than in normal cells

Q: What about the “expression of glucocorticoid receptors” value (glucocorticoid receptor [3]; HeLa cells, 0, 5, 25, or 100 nM, 16 hrs) of the same molecule?
A: dose dependent decrease

Q: And the “expression of glucocorticoid receptors” value (glucocorticoid receptor [3]; [5])?
A: dose dependent decrease

Q: And the “expression of glucocorticoid receptors” value (glucocorticoid receptor [3]; [6])?
A: dose dependent decrease

Q: What about the “expression of glucocorticoid receptors” value (glucocorticoid receptor [3]; [7]) of the same molecule?
A: suppress the expression of glucocorticoid receptors

Q: What about the “expression of glucocorticoid receptors” value (glucocorticoid receptor [3]; [8]) of the same molecule?
A: dose dependent decrease

Q: And the “expression of glucocorticoid receptors” value (glucocorticoid receptor [3]; [9])?
A: dose dependent decrease

Q: What does the source list for CCc1cc(-c2nnc(S)n2-c2cccc3ccccc23)c(O)cc1O [Compound 49, 3-(2,4-Dihydroxy-5-ethyl-phenyl)-4-(naphthalen-1-yl)-5-mercapto-triazole]?
A: degradation of Her2 (Her2; 0.5 μM): partial degradated; degradation of Her2 (Her2; 2 μM): complete degradation; degradation of Her2 (Her2; 5 μM): complete degradation

Q: Which “ATPase activity of Hsp90” value (Hsp90 protein; 4 μM) does the source give for Oc1ccc(-c2nnc(S)n2-c2cccc3ccccc23)c(O)c1 [Compound 108, 3-(2,4-Dihydroxy-phenyl)-4-(naphthalen-1-yl)-5-mercapto-triazole] here?
A: significant inhibition

Q: What about the “ATPase activity of Hsp90” value (Hsp90 protein; 40 μM) of the same molecule?
A: even greater inhibition of ATPase activity of Hsp90 than geldanamycin

Q: And the “degradation of Her2” value (Her2; 0.5 μM)?
A: partially degradated

Q: And the “degradation of Her2” value (Her2; 2 μM)?
A: partially degradated

Q: And the “degradation of Her2” value (Her2; 5 μM)?
A: almost completely degraded
